The values below come from patent US6147068A, “Lipophilic polyamine esters for the site specific delivery of nitric oxide in pharmaceutical use” (The University of Akron, priority 1998, dated 2000).

This series is described as follows: Nitric oxide release profile of NONOates (nitric oxide analyzer). The format is physicochemical. The protocol:
Using a Monitor Labs Model 8440 Nitric Oxide Analyzer, interfaced with an HP 3396 A Chromatography Integrator, the nitric oxide release from the above synthesized NONOates was measured. […] Teflon® flow meters were inserted at the beginning of the circuit just before entry into the analyzer, and a helium tank with regulator was connected to the first flow meter.
The release profile was performed by adding about 3 to about 8 mg of the NO donor molecules prepared above to 25 ml of phosphate-buffered saline (PBS) (pH 7.4) in an impinger bottle that was subjected to continuous stirring. Varying amounts of the lung surfactant Survanta was added to certain samples, as were the surfactants Tween® 20 and Tween® 80. Tween® is available from Fisher Scientific Company, Fair Lawn, N.J. Still in other examples, the NONOates were simply dissolved in THF. Although the NONOates are insoluble in aqueous solution, sonication pulverized the compound adequately to produce fine particles that increased the surface area of the compound allowing a suspension to form. Once the impinger bottle was assembled, it was held in a water sonicator bath and sonicated until the insoluble sample was pulverized into fine particles or an emulsion. The amount of liberated NO was determined by the daily or timely flushing of helium through the solution and into the analyzer. Typically, measurements were taken every 2-4 hours during the first 18 hours and then every 12 hours thereafter. Eventually, readings only needed to be taken every 24 hours as the end of the release profile was approached. Helium gas was flushed through the system at 12 psig and the first flow meter was set to 150 ml/min. The second flow meter was adjusted to allow maximum flow. The released data was then used to compile the release profiles represented in FIGS. 3-10. The release profiles as represented in FIGS. 3-10 depict NO release from the NONOates in nmol NO/mg NONOate versus time in hours.
Based on these release profiles, the half-life and % Release for each NONOate prepared above was calculated and is represented in Table I, which represents NO release in PBS at pH 7.4.

As usually defined, the half-life is the time in which the quantity being followed falls by half. Regarding `CC(C)CCC[C@@H](C)[C@H]1CC[C@H]2[C@@H]3CC=C4C[C@@H](OC(=O)CCN(CCCCN)[N+]([O-])=NO)CC[C@]4(C)[C@H]3CC[C@]12C` [CPNO, Cholesterylputreanine-NONOate], the half-life by setting is: (1% survanta, half-life (NO release)) 2.58 days; (5% & 10% survanta, half-life (NO release)) 1.62 days; (5% tween 20, half-life (NO release)) 4.33 days; (10% tween 20, half-life (NO release)) 3 days; (pbs, pH 7.4, half-life (NO release)) 2.5 days; (thf, pH 1, half-life (NO release)) 0.875 days. The “half-life (NO release)” value (pbs, pH 7.4) is on record as “about 60 hr”.
For Dihexadecanylspermate-NONOate [DiHSNO], the “% Release (NO)” value (PBS, pH 7.4) was “about 7.4%”.
